# Results reported in US20210052741A1, “GENE THERAPY METHODS AND COMPOSITIONS USING AUXOTROPHIC REGULATABLE CELLS” (AUXOLYTIC LTD, priority 2018, published 2021).
# Where “and” joins values, the source holds several entries; their conditions need not be identical. Identical values can stand only once.
# What was measured:
# Type in all cases: cell-based, human
# [1] = test system: Mock T cells; assay: Growth time course with/without UMP or uridine; conditions: metabolite 250 μg/ml
# Method: (§1) Genomic DNA was harvested using QUICKEXTRACT™ DNA Extraction Kit (Epicentre). Cells were counted on an automated cell counter using Trypan blue staining or on a CytoFLEX flow cytometer (Beckman Coulter) with automatic plate reader using COUNTBRIGHT™ beads (ThermoFisher) as a reference for normalizing the values. Alternatively, cells were analyzed after staining with fluorochrome-labelled antibodies (Biolegend) on an ACCURI™ C6 flow cytometer (BD Biosciences), which also measures volumes, or a FACS ARIA™ II SORP cell sorter (BD Biosciences). Data was analyzed using Excel (Microsoft) and FlowJo software (Tree Star).
# (§2) T Cells were electroporated and edited as in Example 2 and allowed to recover for a 4-day period in medium with serum, uridine, and UMP. On day 4, cells were shifted to UMP, uridine, or uracil source media.
# (§3) To evaluate whether the UMPS knockout leads to differential cell proliferation if cultured without the addition of Uridine or Uridine monophosphate (UMP), the cell counts in culture were followed over time by automatic cell counting with Trypan blue staining. UMPS knockout led to lower cell counts from day 2 after electroporation, compared to cells that were mock electroporated or electroporated using Cas9 targeting a different genomic locus (i.e., CCR5) (FIG. 5B).
# [2] = test system: UMPS knockout T cells; assay: Growth time course with/without UMP or uridine
# Method: as §1, §2, §3
# [3] = test system: CCR5 knockout T cells; assay: Growth time course with/without UMP or uridine; conditions: metabolite 250 μg/ml
# Method: as §1, §2, §3
# [4] = test system: Mock T cells; assay: 5-FOA selection, cell counts after 4 days
# Method: (§4) 5-FOA selects for uracil auxotrophic cells in other organisms (e.g. Boeke et al. 1984, Mol. Gen. Genet. 197(2):345-6), which is hereby incorporated by reference in its entirety). To investigate the potential utility of 5-FOA for the selection of uracil auxotrophs among human cells, the UMPS gene was targeted in human T cells by Cas9-gRNA complex electroporation followed by recovery (as shown in Example 2) followed by an assay of resistance to 5-FOA treatment (FIG. 3A). Cells were grown in 5-FOA and a variety of combinations of serum and uracil sources for 4 days before cell counting was performed.
# [5] = test system: UMPS-7 targeted T cells; assay: 5-FOA selection, cell counts after 4 days
# Method: as §4
# [6] = test system: UMPS knockout T cells; assay: Uracil auxotrophy growth assay after 5-FOA selection; conditions: after 4 days 5-FOA selection, 4 days in supplemented media, without serum
# Method: To assay whether or not the cells selected for by 5-FOA treatment were uracil auxotrophs, mock or UMPS targeted T cells were exposed to 5-FOA as shown in Example 4. Following 4 days of 5-FOA selection, the population of cells was split into an uracil containing media (UMP, uridine or both) and an uracil deficient media. A growth assay was subsequently performed by cell counting after following 4 days incubation in test media (Day 8) (FIG. 4A). In all cases, cell growth in the mock targeted cell cultures was negligible and independent of uracil source supplementation—indicating successful killing of non-UMPS targeted cells during the 5-FOA selection step (FIG. 4B-FIG. 4D).
# [7] = test system: UMPS edited T cells; assay: TIDE analysis of UMPS InDels in mixed UMPS edited population
# Method: Sanger sequencing of the UMPS locus was performed using UMPS-O-1 and UMPS-O-2, with the region amplified using PHUSION™ Hot Start Flex 2x Master Mix (New England Biolabs, Inc.). Sanger sequencing traces were analyzed by TIDE analysis (see, Brinkman et al, 2014, Nucleic Acids Res. 42(22):e168), which is hereby incorporated by reference in its entirety) to identify insertions and deletions (InDels) after editing. InDel quantification was performed on the sequences using the TIDE online tool (www.deskgen.com/landing/tide.html) (See, M. Sadelain, N. Engl. J. Med. 365, 1735-7 (2011), which is hereby incorporated by reference in its entirety.
# T Cells were electroporated and edited as in Example 2 and allowed to recover for a 4-day period in medium with serum, uridine, and UMP. On day 4, cells were shifted to UMP, uridine, or uracil source media. […]
# To confirm the results on the genomic level, genomic DNA was harvested at the end of the experiment and InDels were quantified (FIG. 5D-FIG. 5E). FIG. 5D compares the frequency of InDels in different culture conditions for cells not exposed to 5-FOA.
# [8] = UMPS knockout, metabolite 250 μg/ml
# [9] = cells not exposed to 5-FOA, end of experiment, metabolite 250 μg/ml
smiles,measurement,setting,value
"O=c1ccn([C@@H]2O[C@H](COP(=O)(O)O)[C@@H](O)[C@H]2O)c(=O)[nH]1 [UMP, Uridine monophosphate]","Cell density, Day 1",[1],9.83E+05 cells per ml
same,"Cell density, Day 2",[1],2.01E+06 cells per ml
same,"Cell density, Day 4",[1],3.80E+06 cells per ml
same,"Cell density, Day 6",[1],4.18E+06 cells per ml
same,"Cell density, Day 8",[1],3.90E+06 cells per ml
same,"Cell density, Day 1",[2]; [8],8.74E+05 cells per ml
same,"Cell density, Day 2",[2]; [8],1.86E+06 cells per ml
same,"Cell density, Day 4",[2]; [8],3.47E+06 cells per ml
same,"Cell density, Day 6",[2]; [8],3.88E+06 cells per ml
same,"Cell density, Day 8",[2]; [8],3.63E+06 cells per ml
same,"Number of viable cells per ml, Day 1",[2]; [8],874000 cells per ml
same,"Number of viable cells per ml, Day 2",[2]; [8],1860000 cells per ml
same,"Number of viable cells per ml, Day 4",[2]; [8],3470000 cells per ml
same,"Number of viable cells per ml, Day 6",[2]; [8],3880000 cells per ml
same,"Number of viable cells per ml, Day 8",[2]; [8],3630000 cells per ml
same,growth of UMPS edited culture,[2]; exogenous uracil source 250 μg/ml,rescued the growth of an UMPS edited culture to the same level as mock edited cells
same,cell proliferation after UMPS knockout,[2]; supplemented at 250 μg/ml,not impaired
same,"Cell density, Day 1",[3],1.02E+06 cells per ml
same,"Cell density, Day 2",[3],1.80E+06 cells per ml
same,"Cell density, Day 4",[3],3.32E+06 cells per ml
same,"Cell density, Day 6",[3],3.80E+06 cells per ml
same,"Cell density, Day 8",[3],4.03E+06 cells per ml
same,Average of cells per volume unit,"[4]; Mock, 4 days in 5-FOA without serum, with substrate",24770.99 cells per volume unit
same,survival in 5-FOA compared to control,[4]; mock treated cells,improved the survival
same,survival in 5-FOA compared to control,[5]; UMPS targeted cells,improved the survival
same,Average of cells per volume unit,"[5]; UMPS-7, 4 days in 5-FOA without serum, with substrate",58299.26 cells per volume unit
same,Cells counts on Day 8,[6],9978 and 6392
same,"Alleles with frameshift InDels, Percent of alleles (without 5-FOA)","[7]; TIDE, day 8, metabolite 250 μg/ml",46.1%
same,"Alleles with InDels, Percent of alleles (without 5-FOA)","[7]; TIDE, metabolite 250 μg/ml",71.1%
same,"frameshift InDel frequency, Percent",[7]; [9],46.1%
same,"overall InDel frequency, Percent (%)",[7]; [9],71.1%
same,"Predicted viable cell counts, Cells with In-frame InDel","[7]; day 8, metabolite 250 μg/ml",908000
same,"Predicted viable cell counts, Cells with frameshift InDel","[7]; day 8, metabolite 250 μg/ml",1670000
same,"Predicted viable cell counts, Cells without InDel","[7]; day 8, metabolite 250 μg/ml",1049070
